Results published in ChEMBL document CHEMBL1629620 (Antimicrob Agents Chemother, 2009).
pEC50, pIC50: −log10 of the molar value.

Legend:
[1] = test system: Cowpox virus; assay: Antiviral activity against Cowpox virus Brighton infected in BALB/c mouse assessed as uncured animal at 15 mg/kg, po bid for 5 days administered 24 hrs after infection relative to control; type: functional
[2] = test system: Cowpox virus; assay: Antiviral activity against Cowpox virus Brighton infected in BALB/c mouse assessed as uncured animal at 5 mg/kg, po bid for 5 days administered 2 days after infection relative to control; type: functional
[3] = test system: Cowpox virus; assay: Antiviral activity against Cowpox virus Brighton infected in BALB/c mouse assessed as uncured animal at 15 mg/kg, ip qd for 5 days administered 24 hrs after infection relative to control; type: functional; details: route intraperitoneal
[4] = test system: Cowpox virus; assay: Antiviral activity against Cowpox virus Brighton infected in BALB/c mouse assessed as uncured animal at 5 mg/kg, ip bid for 5 days administered 24 hrs after infection relative to control; type: functional; details: route intraperitoneal
[5] = test system: Vaccinia virus; assay: Antiviral activity against Vaccinia virus Copenhagen infected in HFF assessed as reduction of plaque formation after 3 days; type: functional, organism-based; details: Orthopoxvirus vaccinia, 72 h
[6] = test system: Cowpox virus; assay: Antiviral activity against Cowpox virus Brighton infected in BALB/c mouse assessed as uncured animal at 5 mg/kg, po bid for 5 days administered 24 hrs after infection relative to control; type: functional
[7] = test system: Cowpox virus; assay: Antiviral activity against Cowpox virus Brighton infected in BALB/c mouse assessed as uncured animal at 5 mg/kg, po bid for 5 days administered 4 days after infection relative to control; type: functional
[8] = test system: Cowpox virus; assay: Antiviral activity against Cowpox virus Brighton infected in BALB/c mouse assessed as day of death at 15 mg/kg, po bid for 5 days administered 2 days after infection; type: functional
[9] = test system: Vaccinia virus; assay: Antiviral activity against Vaccinia virus WR infected in HFF assessed as inhibition of DNA synthesis after 24 hrs by PCR analysis; type: functional, organism-based; details: Orthopoxvirus vaccinia
[10] = test system: Vaccinia virus; assay: Antiviral activity against Vaccinia virus WR infected in BALB/c mouse assessed as day of death at 15 mg/kg, ip bid for 5 days administered 24 hrs after infection; type: functional, Orthopoxvirus vaccinia; details: route intraperitoneal
[11] = test system: Cowpox virus; assay: Antiviral activity against Cowpox virus Brighton infected in BALB/c mouse assessed as day of death at 5 mg/kg, po bid for 5 days administered 2 days after infection; type: functional
[12] = test system: Vaccinia virus; assay: Antiviral activity against Vaccinia virus WR infected in BALB/c mouse assessed as uncured animal at 50 mg/kg, ip bid for 5 days administered 24 hrs after infection relative to control; type: functional, Orthopoxvirus vaccinia; details: route intraperitoneal
[13] = test system: Cowpox virus; assay: Antiviral activity against Cowpox virus Brighton infected in BALB/c mouse assessed as uncured animal at 5 mg/kg, po bid for 5 days administered 3 days after infection relative to control; type: functional
[14] = test system: Vaccinia virus; assay: Antiviral activity against Vaccinia virus WR infected in BALB/c mouse assessed as uncured animal at 5 mg/kg, ip bid for 5 days administered 24 hrs after infection relative to control; type: functional, Orthopoxvirus vaccinia; details: route intraperitoneal
[15] = test system: Cowpox virus; assay: Antiviral activity against Cowpox virus Brighton infected in BALB/c mouse assessed as uncured animal at 15 mg/kg, po bid for 5 days administered 3 days after infection relative to control; type: functional
[16] = test system: Cowpox virus; assay: Antiviral activity against Cowpox virus Brighton infected in BALB/c mouse assessed as day of death at 5 mg/kg, po bid for 5 days administered 4 days after infection; type: functional
[17] = test system: Cowpox virus; assay: Antiviral activity against Cowpox virus Brighton infected in BALB/c mouse assessed as day of death at 15 mg/kg, po bid for 5 days administered 3 days after infection; type: functional
[18] = test system: Cowpox virus; assay: Antiviral activity against Cowpox virus Brighton infected in BALB/c mouse assessed as day of death at 5 mg/kg, po bid for 5 days administered 5 days after infection; type: functional
[19] = test system: Cowpox virus; assay: Antiviral activity against Cowpox virus Brighton infected in BALB/c mouse assessed as day of death at 5 mg/kg, po bid for 5 days administered 8 days after infection; type: functional
[20] = test system: Vaccinia virus; assay: Antiviral activity against Vaccinia virus WR infected in BALB/c mouse assessed as uncured animal at 15 mg/kg, ip bid for 5 days administered 24 hrs after infection relative to control; type: functional, Orthopoxvirus vaccinia; details: route intraperitoneal
[21] = test system: Cowpox virus; assay: Antiviral activity against Cowpox virus Brighton infected in BALB/c mouse assessed as uncured animal at 1.5 mg/kg, po bid for 5 days administered 3 days after infection relative to control; type: functional
[22] = test system: Cowpox virus; assay: Antiviral activity against Cowpox virus Brighton infected in BALB/c mouse assessed as uncured animal at 5 mg/kg, po bid for 5 days administered 8 days after infection relative to control; type: functional
[23] = Cytotoxicity against HFF after 7 days by neutral red uptake assay; type: cell-based; details: human, HFF cells
[24] = test system: Cowpox virus; assay: Antiviral activity against Cowpox virus Brighton infected in BALB/c mouse assessed as uncured animal at 1.5 mg/kg, ip bid for 5 days administered 24 hrs after infection relative to control; type: functional; details: route intraperitoneal
[25] = test system: Cowpox virus; assay: Antiviral activity against Cowpox virus Brighton infected in BALB/c mouse assessed as uncured animal at 1.5 mg/kg, po bid for 5 days administered 2 days after infection relative to control; type: functional
[26] = test system: Cowpox virus; assay: Antiviral activity against Cowpox virus Brighton infected in BALB/c mouse assessed as uncured animal at 1.5 mg/kg, po bid for 5 days administered 24 hrs after infection relative to control; type: functional
[27] = test system: Vaccinia virus; assay: Antiviral activity against Vaccinia virus WR infected in HFF assessed as reduction of plaque formation after 3 days; type: functional, organism-based; details: Orthopoxvirus vaccinia, 72 h
[28] = test system: Cowpox virus; assay: Antiviral activity against Cowpox virus Brighton infected in BALB/c mouse assessed as uncured animal at 15 mg/kg, po bid for 5 days administered 2 days after infection relative to control; type: functional
[29] = test system: Cowpox virus; assay: Antiviral activity against Cowpox virus Brighton infected in BALB/c mouse assessed as day of death at 1.5 mg/kg, po bid for 5 days administered 3 days after infection; type: functional
[30] = test system: Cowpox virus; assay: Antiviral activity against Cowpox virus Brighton infected in BALB/c mouse assessed as uncured animal at 5 mg/kg, po bid for 5 days administered 5 days after infection relative to control; type: functional
[31] = test system: HFF; assay: Antiproliferative activity against HFF after 3 days by coulter counter assay; type: cell-based; details: Homo sapiens, 72 h
[32] = test system: Vaccinia virus; assay: Ratio of compound EC50 to cidofovir EC50 for Vaccinia virus Copenhagen; type: functional, Orthopoxvirus vaccinia
[33] = test system: Cowpox virus; assay: Antiviral activity against Cowpox virus Brighton infected in HFF assessed as reduction of plaque formation after 3 days; type: functional, organism-based; details: 72 h
[34] = test system: Cowpox virus; assay: Ratio of compound EC50 to cidofovir EC50 for Cowpox virus Brighton; type: functional
[35] = test system: Vaccinia virus; assay: Ratio of compound EC50 to cidofovir EC50 for Vaccinia virus WR; type: functional, Orthopoxvirus vaccinia
[36] = test system: Cowpox virus; assay: Antiviral activity against Cowpox virus Brighton infected in BALB/c mouse assessed as uncured animal at 15 mg/kg, ip qd for 5 days administered 8 days after infection relative to control; type: functional; details: route intraperitoneal
[37] = test system: Cowpox virus; assay: Antiviral activity against Cowpox virus Brighton infected in BALB/c mouse assessed as uncured animal at 15 mg/kg, ip qd for 5 days administered 4 days after infection relative to control; type: functional; details: route intraperitoneal
[38] = test system: Cowpox virus; assay: Antiviral activity against Cowpox virus Brighton infected in BALB/c mouse assessed as uncured animal at 15 mg/kg, ip qd for 5 days administered 2 days after infection relative to control; type: functional; details: route intraperitoneal
[39] = test system: Cowpox virus; assay: Antiviral activity against Cowpox virus Brighton infected in BALB/c mouse assessed as day of death at 15 mg/kg, ip qd for 5 days administered 5 days after infection; type: functional; details: route intraperitoneal
[40] = test system: Vaccinia virus; assay: Antiviral activity against Vaccinia virus WR infected in BALB/c mouse assessed as uncured animal at 15 mg/kg, ip qd for 5 days administered 24 hrs after infection relative to control; type: functional, Orthopoxvirus vaccinia; details: route intraperitoneal
[41] = test system: Cowpox virus; assay: Antiviral activity against Cowpox virus Brighton infected in BALB/c mouse assessed as uncured animal at 15 mg/kg, ip qd for 5 days administered 3 days after infection relative to control; type: functional; details: route intraperitoneal
[42] = test system: Cowpox virus; assay: Antiviral activity against Cowpox virus Brighton infected in BALB/c mouse assessed as day of death at 15 mg/kg, ip qd for 5 days administered 8 days after infection; type: functional; details: route intraperitoneal
[43] = test system: Cowpox virus; assay: Antiviral activity against Cowpox virus Brighton infected in BALB/c mouse assessed as uncured animal at 15 mg/kg, ip qd for 5 days administered 5 days after infection relative to control; type: functional; details: route intraperitoneal

O=c1[nH]c(=O)n([C@H]2C[C@H](O)[C@@H](CO)S2)cc1I
Activity [1]: 0%
Activity [2]: 13%
Activity [3]: 0%
Activity [4]: 0%
pEC50 [5]: 6.30
Activity [6]: 0%
Activity [7]: 27%
Activity [8]: 18%
pEC50 [9]: 6.22
Activity [10]: 11%
Activity [11]: 16 days
Activity [12]: 0%
Activity [13]: 0%
Activity [14]: 0%
Activity [15]: 7%
Activity [16]: 13.3 days
Activity [17]: 14%
Activity [18]: 9.8 days
Activity [19]: 9.7 days
Activity [20]: 7%
Activity [21]: 13%
Activity [22]: 100%
CC50 at 168 h [23]: > 100000 nM
Activity [24]: 0%
Activity [25]: 0%
Activity [26]: 0%
pEC50 [27]: 7.40
Activity [28]: 7%
Activity [29]: 14 days
Activity [30]: 87%
pIC50 [31]: 5.52

Nc1nc(=O)n([C@@H]2S[C@H](CO)[C@@H](O)[C@@H]2O)cc1F
pEC50 [5]: 7.00
Ratio EC50 [32]: 20
pEC50 [33]: 6.40
Ratio EC50 [34]: 20
CC50 at 168 h [23]: > 100000 nM
Ratio EC50 [35]: 20
pIC50 [31]: > 7.52

CC(=O)OC[C@H]1S[C@@H](n2cc(I)c(=O)[nH]c2=O)C[C@@H]1OC(C)=O
pEC50 [5]: 6.05
Ratio EC50 [32]: 20
pEC50 [33]: 6.48
Ratio EC50 [34]: 20
CC50 at 168 h [23]: > 100000 nM
Ratio EC50 [35]: 20
pIC50 [31]: 4.59

Nc1ccn([C@@H]2S[C@H](CO)[C@@H](O)[C@@H]2O)c(=O)n1 [THIARABINE]
pEC50 [5]: 6.52
Ratio EC50 [32]: 20
pEC50 [33]: 5.80
Ratio EC50 [34]: 20
CC50 at 168 h [23]: > 88000 nM
Ratio EC50 [35]: 20
pIC50 [31]: 6.00

O=c1[nH]c(=O)n([C@H]2C[C@H](O)[C@@H](CO)O2)cc1I [IDOXURIDINE]
pEC50 [9]: 4.77
pEC50 [27]: 5.55

O=C(NN1C(=O)[C@@H]2[C@@H]3C=C[C@@H]([C@H]4C[C@@H]34)[C@@H]2C1=O)c1ccc(C(F)(F)F)cc1 [TECOVIRIMAT]
pEC50 [9]: < 4.00
pEC50 [27]: 7.15

Nc1ccn(C[C@@H](CO)OCP(=O)(O)O)c(=O)n1.O.O [CIDOFOVIR]
Activity [36]: 27%
Activity [3]: 0%
pEC50 [5]: 4.72
Activity [37]: 0%
Activity [38]: 0%
Activity [39]: 10.5 days
CC50 at 168 h [23]: > 317000 nM
Activity [40]: 0%
Activity [41]: 0%
pEC50 [27]: 5.00
Activity [42]: 12 days
Activity [43]: 80%
pIC50 [31]: 5.72

Cc1cn([C@H]2C[C@H](O)[C@@H](CO)S2)c(=O)[nH]c1=O [4'-THIOTHYMIDINE]
pEC50 [5]: 7.52
Ratio EC50 [32]: 20
pEC50 [33]: 7.70
Ratio EC50 [34]: 20
CC50 at 168 h [23]: > 100000 nM
Ratio EC50 [35]: 20
pIC50 [31]: > 7.52

O=c1[nH]c(=O)n([C@H]2C[C@H](O)[C@@H](CO)S2)cc1C(F)(F)F
pEC50 [5]: 7.00
Ratio EC50 [32]: 20
pEC50 [33]: 7.10
Ratio EC50 [34]: 20
CC50 at 168 h [23]: > 100000 nM
Ratio EC50 [35]: 20
pIC50 [31]: 6.85

O=c1[nH]c(=O)n([C@H]2C[C@H](O)[C@@H](CO)S2)cc1Br
pEC50 [5]: 7.05
Ratio EC50 [32]: 20
pEC50 [33]: 7.30
Ratio EC50 [34]: 20
CC50 at 168 h [23]: > 100000 nM
Ratio EC50 [35]: 20
pIC50 [31]: 6.70
